From patent publication US9211310B2, “Use of a Chinese medicine composition in preparing medicaments for treating secondary prevention of myocardial infarction” (TASLY PHARMACEUTICAL GROUP CO., LTD, priority 2010, dated 2015)

System: patients after acute myocardial infarction
Assay: Life quality, Seattle Angina Questionnaire (SAQ), same clinical trial
Format: in vivo, human
Text: 3508 patients who were in accordance with the diagnostic standards of AMI for 28 days to 2 years and differentiated as Qi deficiency and blood stagnation syndrome by TCM were studied. 0.5 g Chinese medicine composition prepared by the method of EXAMPLE 1 (Coded as QSYQ) was administrated half an hour after meal, 3 times per day.
There were 19 questions in the Seattle angina questionnaire (SAQ), including 5 parts: physical limitation (PL), anginal stability (AS), anginal frequency (AF), treatment satisfaction (TS) and disease perception (DP). After being given necessary explanation by doctors, the questions were answered independently by patients.
They included the overall survival time, angina pectoris score, TCM symptom score and life quality score, where angina pectoris score, TCM symptom score and life quality score were evaluated at randomization, in 1st, 3rd, 6th, 9th, 12th month after treatment and 18th month after follow-up.
All evaluation results of SAQ were described during the period of observation, and Wilcoxon rank sum test was used for inter-group comparison.
The evaluation results in the SAQ were depicted in different observations, and inter-group comparison was tested by Wilcoxon Rank-sum test.

CC(=O)Oc1ccccc1C(=O)O [Control group, aspirine]
SAQ Question 1-3: Slightly limited, percent of patients (6 months after treatment, PP): (15.66%) | SAQ Question 1-4: Mildly limited, number of patients (6 months after treatment, PP): 266 | SAQ Question 1-4: Mildly limited, percent of patients (6 months after treatment, PP): (18.37%) | SAQ Question 1-4: Moderately limited, number of patients (6 months after treatment, PP): 74 | SAQ Question 1-4: Moderately limited, percent of patients (6 months after treatment, PP): (5.11%) | SAQ Question 1-4: Not limited, number of patients (6 months after treatment, PP): 613 | SAQ Question 1-4: Not limited, percent of patients (6 months after treatment, PP): (42.33%) | SAQ Question 1-4: Other reasons, number of patients (6 months after treatment, PP): 12 | SAQ Question 1-4: Other reasons, percent of patients (6 months after treatment, PP): (0.83%) | SAQ Question 1-4: Severely limited, number of patients (6 months after treatment, PP): 20 | SAQ Question 1-4: Severely limited, percent of patients (6 months after treatment, PP): (1.38%) | SAQ Question 1-4: Slightly limited, number of patients (6 months after treatment, PP): 463 | SAQ Question 1-4: Slightly limited, percent of patients (6 months after treatment, PP): (31.98%) | SAQ Question 1-5: Mildly limited, number of patients (6 months after treatment, PP): 244 | SAQ Question 1-5: Mildly limited, percent of patients (6 months after treatment, PP): (16.86%) | SAQ Question 1-5: Moderately limited, number of patients (6 months after treatment, PP): 109 | SAQ Question 1-5: Moderately limited, percent of patients (6 months after treatment, PP): (7.53%) | SAQ Question 1-5: Not limited, number of patients (6 months after treatment, PP): 637 | SAQ Question 1-5: Not limited, percent of patients (6 months after treatment, PP): (44.02%) | SAQ Question 1-5: Other reasons, number of patients (6 months after treatment, PP): 12 | SAQ Question 1-5: Other reasons, percent of patients (6 months after treatment, PP): (0.83%) | SAQ Question 1-5: Severely limited, number of patients (6 months after treatment, PP): 12 | SAQ Question 1-5: Severely limited, percent of patients (6 months after treatment, PP): (0.83%) | SAQ Question 1-5: Slightly limited, number of patients (6 months after treatment, PP): 433 | SAQ Question 1-5: Slightly limited, percent of patients (6 months after treatment, PP): (29.92%) | SAQ Question 1-9: Mildly limited, % of cases (6 months after treatment, PP): (20.47%) | SAQ Question 1-9: Mildly limited, cases (6 months after treatment, PP): 289 | SAQ Question 1-9: Moderately limited, % of cases (6 months after treatment, PP): (21.60%) | SAQ Question 1-9: Moderately limited, cases (6 months after treatment, PP): 305 | SAQ Question 1-9: Not limited, % of cases (6 months after treatment, PP): (3.54%) | SAQ Question 1-9: Not limited, cases (6 months after treatment, PP): 50 | SAQ Question 1-9: Other limited, % of cases (6 months after treatment, PP): (6.37%) | SAQ Question 1-9: Other limited, cases (6 months after treatment, PP): 90 | SAQ Question 1-9: Severely limited, % of cases (6 months after treatment, PP): (34.70%) | SAQ Question 1-9: Severely limited, cases (6 months after treatment, PP): 490 | SAQ Question 1-9: Slightly limited, % of cases (6 months after treatment, PP): (13.31%) | SAQ Question 1-9: Slightly limited, cases (6 months after treatment, PP): 188 | SAQ 2nd question: 6, % of cases (9 months after treatment, FAS): (0.00%) | SAQ 2nd question: 6, cases (9 months after treatment, FAS): 0 | SAQ 2nd question: Clearly increased, % of cases (9 months after treatment, FAS): (1.44%) | SAQ 2nd question: Clearly increased, cases (9 months after treatment, FAS): 25 | SAQ 2nd question: Clearly reduced, % of cases (9 months after treatment, FAS): (24.17%) | SAQ 2nd question: Clearly reduced, cases (9 months after treatment, FAS): 421 | SAQ 2nd question: Same, % of cases (9 months after treatment, FAS): (35.94%) | SAQ 2nd question: Same, cases (9 months after treatment, FAS): 626 | SAQ 2nd question: Slightly increased, % of cases (9 months after treatment, FAS): (3.96%) | SAQ 2nd question: Slightly increased, cases (9 months after treatment, FAS): 69 | SAQ 2nd question: Slightly reduced, % of cases (9 months after treatment, FAS): (34.50%) | SAQ 2nd question: Slightly reduced, cases (9 months after treatment, FAS): 601 | SAQ 3rd question: 1-2 times per week, % of cases (9 months after treatment, FAS): (34.50%) | SAQ 3rd question: 1-2 times per week, cases (9 months after treatment, FAS): 601 | SAQ 3rd question: 1-3 times per day, % of cases (9 months after treatment, FAS): (3.96%) | SAQ 3rd question: 1-3 times per day, cases (9 months after treatment, FAS): 69 | SAQ 3rd question: <1 time per week, % of cases (9 months after treatment, FAS): (24.17%) | SAQ 3rd question: <1 time per week, cases (9 months after treatment, FAS): 421 | SAQ 3rd question: No onset, % of cases (9 months after treatment, FAS): (0.00%) | SAQ 3rd question: No onset, cases (9 months after treatment, FAS): 0 | SAQ 3rd question: ≧3 times per week, % of cases (9 months after treatment, FAS): (35.94%) | SAQ 3rd question: ≧3 times per week, cases (9 months after treatment, FAS): 626 | SAQ 3rd question: ≧4 times per day, % of cases (9 months after treatment, FAS): (1.44%) | SAQ 3rd question: ≧4 times per day, cases (9 months after treatment, FAS): 25 | SAQ Question 1-3: Mildly limited, number of patients (9 months after treatment, FAS): 58 | SAQ Question 1-3: Mildly limited, percent of patients (9 months after treatment, FAS): (3.33%) | SAQ Question 1-3: Moderately limited, number of patients (9 months after treatment, FAS): 17 | SAQ Question 1-3: Moderately limited, percent of patients (9 months after treatment, FAS): (0.97%) | SAQ Question 1-3: Not limited, number of patients (9 months after treatment, FAS): 1421 | SAQ Question 1-3: Not limited, percent of patients (9 months after treatment, FAS): (81.48%) | SAQ Question 1-3: Other reasons, number of patients (9 months after treatment, FAS): 8 | SAQ Question 1-3: Other reasons, percent of patients (9 months after treatment, FAS): (0.46%) | SAQ Question 1-3: Severely limited, number of patients (9 months after treatment, FAS): 2 | SAQ Question 1-3: Severely limited, percent of patients (9 months after treatment, FAS): (0.11%) | SAQ Question 1-3: Slightly limited, number of patients (9 months after treatment, FAS): 238 | SAQ Question 1-3: Slightly limited, percent of patients (9 months after treatment, FAS): (13.65%) | SAQ Question 1-4: Mildly limited, number of patients (9 months after treatment, FAS): 264 | SAQ Question 1-4: Mildly limited, percent of patients (9 months after treatment, FAS): (15.14%) | SAQ Question 1-4: Moderately limited, number of patients (9 months after treatment, FAS): 85 | SAQ Question 1-4: Moderately limited, percent of patients (9 months after treatment, FAS): (4.87%)
